# Results as given in US12041939B2, “Enzyme-loaded pollen-mimicking microparticles for organophosphate detoxification of insect pollinators” (priority 2020, dated 2024).
# Where two headings read alike, the source gives them in different places.
# How the values were obtained:
# [1] = tested on: acetylcholinesterase (AChE); details: versus malathion; cited from earlier work
# [2] = tested on: honeybees; details: cited from earlier work
# [3] = tested on: bumblebees; test: contaminated pollen balls fed without enzyme treatment; details: no enzyme treatment, after one week
# [4] = tested on: AChE; test: AChE activity assay in homogenized honeybees with paraoxon; assay type: biochemical, honeybee; details: 0.5 mM paraoxon
# Description: FIGS. 5A-5F. Characterization of OPT-PIM efficacy through AChE activity assay and bee survival experiments. FIG. 5A is a schematic showing that formation of thiocholine from acetylthiocholine through AChE cleavage can be characterized using 5,5′-dithiobis-2-nitrobenzoic acid (DTNB). DTNB and thiocholine react to form TNB^2-, the absorbance of which can be measured at 412 nm. […] For this experiment, n=9. The positive control is homogenized honeybee cells without any paraoxon treatment; the negative control is homogenized honeybee cells treated with paraoxon but no free OPT or OPT-PIMs treatment. […]. […] FIG. 5E is a plot of exposure to paraoxon (15 μg g^−1 pollen) over 10 days (n=50). FIG. 5F is a plot of exposure to malathion (750 μg g^−1 pollen) over 10 days (n=50). Statistical analysis was performed by using one-way ANOVA tests (FIGS. 5B and 5D). Data are presented as means and error bars represent the standard deviation.
# Efficacy and survival studies. The characterization of OPT-PIM efficacy was further validated via quantification of AChE activity when mixed with the above described treatment and paraoxon. […] Acetylthiocholine cleavage via AChE can be used to quantify AChE activity, as the thiocholine product reacts with DTNB to form TNB^2−, which has an absorbance at 412 nm (FIG. 5A). […]
# [5] = cited from earlier work
# [6] = cited from earlier work; remark: listed apart in the source
# [7] = tested on: bumblebees; test: bumblebee survival on malathion-contaminated pollen balls; assay type: in vivo, Bombus impatiens
# Description: (§1) FIGS. 5A-5F. Characterization of OPT-PIM efficacy through AChE activity assay and bee survival experiments. FIG. 5A is a schematic showing that formation of thiocholine from acetylthiocholine through AChE cleavage can be characterized using 5,5′-dithiobis-2-nitrobenzoic acid (DTNB). DTNB and thiocholine react to form TNB^2-, the absorbance of which can be measured at 412 nm. […] For this experiment, n=9. The positive control is homogenized honeybee cells without any paraoxon treatment; the negative control is homogenized honeybee cells treated with paraoxon but no free OPT or OPT-PIMs treatment. […] FIG. 5E is a plot of exposure to paraoxon (15 μg g^−1 pollen) over 10 days (n=50). FIG. 5F is a plot of exposure to malathion (750 μg g^−1 pollen) over 10 days (n=50). Statistical analysis was performed by using one-way ANOVA tests (FIGS. 5B and 5D). Data are presented as means and error bars represent the standard deviation.
# (§2) Bumblebees consume approximately […] depending on body mass. Based on this figure, pollen balls were initially formed containing 0.432 μg g^−1 paraoxon and 9.383 μg g^−1 malathion to feed without enzyme treatment as a negative control. […] Pollen balls were tested containing 50 μg g^−1 paraoxon over 12 hours to measure the OPT-PIM impact against acute exposure.
# [8] = assay type: biochemical; details: methyl paraoxon, visible nitrophenol formation
# Description: Considering the loading efficiency decrease at higher PFCs and the intrinsic value of OPT, 5% was selected as a baseline to test OPT loading in PIMs. OPT presented 88.1% PLE (PLC=4.43%) at 5% PFC and 90.1% PLE (PLC=1.81%) at 2% PFC (FIG. 3C). […]. this dilution offered adequate sucrose to render the solution sufficiently attractive to bumblebees for consumption.
# [9] = assay type: biochemical; details: for relative activity in paraoxon hydrolysis: OPT 0.5 mg ml^−1, 0.5 mM paraoxon, normalized to OPT-PIMs at pH 7.4
# [10] = assay type: biochemical
# Description: Further experiments were aimed at better understanding the stability of the detoxifying system under significant thermal stress, as any treatment could experience high summer temperatures when administered to bees. […] Thus, experiments were conducted to determine whether microparticle encapsulation offers any protection from thermal denaturation. […]. […] The foregoing result is important for the potential application of the present design, as it has been shown capable of being administered at elevated temperatures.
# [11] = tested on: bumblebees; assay type: in vivo, Bombus impatiens
# Description: as §1, §2
# [12] = assay type: biochemical; details: room temperature (25° C.)
# Description: To gauge the time taken for treatment to lose functionality, bioactivity of each group treatment relative to OPT-PIMs was measured over time when kept at room temperature (25° C.). […] OPT-PIMs stored at 4° C. maintained almost 100% activity after 14 d (FIG. 3G). The microparticle's capacity for long-term bioactivity and protein sequestration indicates a practical shelf life of the design. Other enzyme-engineering efforts, such as genetic engineering of the catalytic and binding pockets, introducing additional chemical functionalities, such as disulfide bridges or fluorine moieties, or incorporation of additives such as sugars, polyols, detergents, polymers and amino acids, may improve the catalytic efficiency of OPT and further enhance its storage stability.
# [13] = malathion hydrolysis assay (DTNB); assay type: biochemical; details: OPT 0.5 mg ml^−1, 0.44 mM malathion
molecule,measurement,setting,value
CCOC(=O)CC(SP(=O)(OC)OC)C(=O)OCC (centres unmarked) [Malaoxon],strength of AChE inhibition relative to malathion,[1],1000 fold
CCOP(=O)(OCC)Oc1ccc([N+](=O)[O-])cc1 [paraoxon],oral LD50 for honeybees,[2],0.0175 μg per bee
same,health effect of contaminated pollen balls,[3]; 0.432 μg g^−1 paraoxon in pollen balls,no health deterioration
same,relative AChE activity reduction,[4]; no free OPT or OPT-PIMs treatment (negative control),~72%
amidohydrolase phosphotriesterase [free OPT],deactivation temperature,"[5]; Co2+ OPT complex, pH 8.0-9.5",60 °C
same,temperature at which thermostability is maintained,"[5]; Co2+ OPT complex, pH 8.0-9.5",less than 45 °C
same,activity relative to maximum potential,[5]; pH 7.0,less than half of its maximum potential
same,Kcat Km^−1,[6],7.6e+07 M⁻¹ s⁻¹
same,mortality,"[7]; 750 μg g^−1 malathion pollen balls, after 5 days",100%
same,survival,"[7]; microcolonies fed malathion-contaminated pollen patties, within/after 5 days (overview)",0%
same,OPT concentration sufficient to initiate rapid hydrolysis,[8],0.5 mg/mL
same,relative activity in paraoxon hydrolysis,[9]; pH 4.8,1.7%
same,relative activity in paraoxon hydrolysis,[9]; pH 7.4,49.7%
same,Km,"[9]; paraoxon, in 2 g ml^−1 sucrose",4.8 mM
same,maximum velocity (Vmax),"[9]; paraoxon, in 2 g ml^−1 sucrose",0.13 mM/min
same,relative activity in paraoxon hydrolysis after incubation,"[10]; 30° C., relative to OPT-PIMs at 30° C.",half the bioactivity of OPT-PIMs
same,relative activity in paraoxon hydrolysis after incubation,"[10]; 50° C., normalized to OPT-PIMs at 30° C.",36.5%
same,relative activity in paraoxon hydrolysis after incubation,"[10]; temperature>60° C., normalized to OPT-PIMs at 30° C.",5.0%
same,mortality,"[11]; 15 μg g^−1 paraoxon pollen balls, 50 μg ml^−1 OPT treatments, after 5 days",100%
same,fatalities,"[11]; 50 μg g^−1 paraoxon pollen balls, 12 hours",62.5%
same,AChE activity retained less than OPT-PIMs-treated samples,[4],18.8%
same,activity retained on storage,[12]; after 7 days,~30%
same,activity retained on storage,[12]; after 14 days,< 10%
same,relative activity in malathion hydrolysis,[13]; pH 4.8,0.6%
same,relative activity in malathion hydrolysis,[13]; pH 7.4,17.1%
CCOC(=O)CC(SP(=S)(OC)OC)C(=O)OCC (centres unmarked) [malathion],oral LD50,[2],0.38 μg/bee
same,oral LD50 for honeybees,[2],0.38 μg per bee
same,health effect of contaminated pollen balls,[3]; 9.383 μg g^−1 malathion in pollen balls,no health deterioration
CCOP(=S)(OCC)Oc1ccc([N+](=O)[O-])cc1 [parathion],oral LD50,[2],0.175 μg/bee
